The test system of experiment [1] is common mosquito (Culex pipiens pallens). As to the kind of experiment: Rate of emergence of last instar larvae of common mosquito reared 7 days in treated water (Test Example 1). It is filed as in vivo. Particulars: 3.5 ppm. On the procedure: An emulsifiable concentrate prepared according to Formulation Example 1 was diluted with water to make a 400 fold dilution. The dilution (0.7 ml) was added to 100 ml of distilled water. Last instar larvae of common mosquito (Culex pipiens pallens) were released therein and reared for 7 days until their emergence. The rate of emergence was observed according to the following criteria: […]

For experiment [2], the system named is housefly (Musca domestica). As to the kind of experiment: Emergence inhibition of housefly larvae reared in treated artificial culture (Test Example 2). It is filed as in vivo. Particulars: read-out: Emergence inhibition. On the procedure: Powdered animal feed (2 g) was thoroughly mixed with bran (14 g). An emulsifiable concentrate prepared according to Formulation Example 1 was diluted with water to a designed concentration and the dilution was added to the above mixture. The resultant mixture was stirred well to make an artificial culture. Thirty larvae of housefly (Musca domestica) were reared therein until their pupation. The obtained pupae were placed into a plastic cup, and the rate of emergence was determined. According to the following equation, the emergence inhibition (%) was calculated: [formula]

Setting [3] is: last instar larvae of Culex pipiens pallens, reared 7 days.
Where [4] appears, read: 0.3 ppm, Musca domestica larvae.

Where two headings read alike, the source gives them in different places.

For `CC(C)CCOc1ccc(OCC(C)Oc2nccs2)cc1` (stereo not drawn) [compound 25], in experiment [1] (setting [3]), the Rate of emergence entry is “A (less than 10%)”. Moreover, the inhibition at 0.3 ppm in experiment [2] (setting [4]) was 8%. The inhibition at 1 ppm in experiment [2] (1 ppm, Musca domestica larvae) is 58%. Moreover, the inhibition at 3 ppm in experiment [2] (3 ppm, Musca domestica larvae) worked out at 100%.

With `CCCCOc1ccc(OCCOc2ccccn2)cc1` [Compound No. 9], the Rate of emergence result in experiment [1] (setting [3]) is recorded as “A (less than 10%)”.

`CC(C)CCOc1ccc(OCCSc2ccccn2)cc1` [Compound No. 22]: the Rate of emergence entry in experiment [1] (setting [3]) is given as “A (less than 10%)”.

Turning to `CC(C)COCc1ccc(OCCOc2ccccn2)cc1` [compound 28], in experiment [1] (setting [3]), the Rate of emergence result is “A (less than 10%)”. Also, the inhibition at 0.3 ppm in experiment [2] (setting [4]) came out at 93%. The inhibition at 1 ppm in experiment [2] (1 ppm, Musca domestica larvae) stood at 100%. In addition, the inhibition at 3 ppm in experiment [2] (3 ppm, Musca domestica larvae) is 100%.

As for `C=C(C)COc1ccc(OCCOc2ccccn2)cc1` [compound 5], the Rate of emergence entry in experiment [1] (setting [3]) is reported as “A (less than 10%)”.

Turning to `CC(C)COc1ccc(OCCOc2ccccn2)cc1` [Compound No. 2], in experiment [1] (setting [3]), the Rate of emergence entry is “A (less than 10%)”. In experiment [2] (setting [4]), the inhibition at 0.3 ppm is 3%. In addition, the inhibition at 1 ppm in experiment [2] (1 ppm, Musca domestica larvae) stood at 42%. Also, the inhibition at 3 ppm in experiment [2] (3 ppm, Musca domestica larvae) is 100%.

With `CCCCCOc1ccc(OCCOc2ccccn2)cc1` [compound 11], the Rate of emergence result in experiment [1] (setting [3]) is listed as “A (less than 10%)”.

Consider `CC(C)CCOc1ccc(OCCOc2nccs2)cc1Cl` [compound 30], for which, in experiment [1] (setting [3]), the Rate of emergence entry is listed as “A (less than 10%)”.

For the compound `CC(C)COc1ccc(OCCOc2nccs2)cc1` [compound 26], the Rate of emergence entry in experiment [1] (setting [3]) was “A (less than 10%)”. For the same compound, in experiment [2] (setting [4]), the inhibition at 0.3 ppm worked out at 11%. In addition, the inhibition at 1 ppm in experiment [2] (1 ppm, Musca domestica larvae) is 61%. Further, the inhibition at 3 ppm in experiment [2] (3 ppm, Musca domestica larvae) is 100%.

For the compound `CC(C)CCOc1ccc(OCCOc2ccccn2)cc1Cl` [compound 32], the Rate of emergence result in experiment [1] (setting [3]) is recorded as “A (less than 10%)”. Moreover, the inhibition at 0.3 ppm in experiment [2] (setting [4]) amounted to 3%. Further, the inhibition at 1 ppm in experiment [2] (1 ppm, Musca domestica larvae) was determined as 56%. Besides, the inhibition at 3 ppm in experiment [2] (3 ppm, Musca domestica larvae) was determined as 94%.

On to `CC(C)CCCc1ccc(OCCOc2ccccn2)cc1` [compound 34], for which the Rate of emergence result in experiment [1] (setting [3]) is “A (less than 10%)”. In experiment [2] (setting [4]), the inhibition at 0.3 ppm stood at 41%. Besides, the inhibition at 1 ppm in experiment [2] (1 ppm, Musca domestica larvae) came out at 67%. The inhibition at 3 ppm in experiment [2] (3 ppm, Musca domestica larvae) was found to be 100%.

For the compound `COC(C)(C)COc1ccc(OCCOc2ccccn2)cc1` [compound 3], the Rate of emergence entry in experiment [1] (setting [3]) is “A (less than 10%)”.

On to `CC(C)COCc1ccc(OCCOc2nccs2)cc1` [Compound No. 29], for which the Rate of emergence result in experiment [1] (setting [3]) was “A (less than 10%)”. The inhibition at 0.3 ppm in experiment [2] (setting [4]) came out at 100%. For the same compound, the inhibition at 1 ppm in experiment [2] (1 ppm, Musca domestica larvae) amounted to 100%. For the same compound, in experiment [2] (3 ppm, Musca domestica larvae), the inhibition at 3 ppm came out at 100%.

Consider `CC(C)CCOc1ccc(OC(C)COc2ncccn2)cc1` (stereo not drawn) [compound 17], for which the Rate of emergence entry in experiment [1] (setting [3]) was “A (less than 10%)”.

Consider `CC(C)CCOc1ccc(OC(C)COc2nccs2)cc1` (stereo not drawn) [compound 24], for which the Rate of emergence result in experiment [1] (setting [3]) was “A (less than 10%)”.

On to `CC(C)CCOc1ccc(OCC(C)Oc2ccccn2)cc1` (stereo not drawn) [compound 15], for which, in experiment [1] (setting [3]), the Rate of emergence entry was “A (less than 10%)”. For the same compound, the inhibition at 0.3 ppm in experiment [2] (setting [4]) was 0%. Also, in experiment [2] (1 ppm, Musca domestica larvae), the inhibition at 1 ppm is 43%. Moreover, in experiment [2] (3 ppm, Musca domestica larvae), the inhibition at 3 ppm was determined as 93%.

Turning to `CCCOc1ccc(OCCOc2ccccn2)cc1` [compound 10], the Rate of emergence entry in experiment [1] (setting [3]) is “A (less than 10%)”.

For the compound `CC(C)CCOc1ccc(OCCOc2ccccn2)cc1` [Compound No. 7], the Rate of emergence result in experiment [1] (setting [3]) is on record as “A (less than 10%)”. In addition, the inhibition at 0.3 ppm in experiment [2] (setting [4]) was 31%. Moreover, the inhibition at 1 ppm in experiment [2] (1 ppm, Musca domestica larvae) is 87%. In addition, the inhibition at 3 ppm in experiment [2] (3 ppm, Musca domestica larvae) was 100%.

Regarding `CC(C)CCCC(C)CCCCOc1ncccn1` (stereo not drawn) [compound 4], in experiment [1] (setting [3]), the Rate of emergence result is given as “A (less than 10%)”.

For `CC(C)CCOc1ccc(OCCSC2=NCCS2)cc1` [compound 21], the Rate of emergence result in experiment [1] (setting [3]) is “A (less than 10%)”.

On to `Cc1cc(OCCOc2nccs2)cc(C)c1OCCC(C)C` [compound 31], for which, in experiment [1] (setting [3]), the Rate of emergence entry is recorded as “A (less than 10%)”.

With `CC(C)(C)COc1ccc(OCCOc2ccccn2)cc1` [compound 14], the Rate of emergence entry in experiment [1] (setting [3]) is “A (less than 10%)”.

With `C=CCOc1ccc(OCCOc2ccccn2)cc1` [compound 6], the Rate of emergence entry in experiment [1] (setting [3]) was “A (less than 10%)”.

Turning to `COC(C)(C)COc1ccc(OCCOc2nccs2)cc1` [compound 27], the Rate of emergence entry in experiment [1] (setting [3]) is recorded as “A (less than 10%)”.

In the case of `COC(C)(C)CCCC(C)C/C=C/C(C)=C/C(=O)OC(C)C` (stereo not drawn) [(a), methoprene, reference compound], the Rate of emergence entry in experiment [1] (168 h) is listed as “A (less than 10%)”. In addition, in experiment [2] (Musca domestica), the inhibition at 0.3 ppm came out at 2%, the inhibition at 1 ppm was 13% and the inhibition at 3 ppm is 60%.

Turning to `CCC(C)COc1ccc(OCCOc2ccccn2)cc1` (stereo not drawn) [compound 12], the Rate of emergence result in experiment [1] (setting [3]) was “A (less than 10%)”. Also, the inhibition at 0.3 ppm in experiment [2] (setting [4]) was determined as 0%. The inhibition at 1 ppm in experiment [2] (1 ppm, Musca domestica larvae) amounted to 20%. In addition, the inhibition at 3 ppm in experiment [2] (3 ppm, Musca domestica larvae) was determined as 83%.

As to `CC(C)(C)CCOc1ccc(OCCOc2ccccn2)cc1` [compound 13], in experiment [1] (setting [3]), the Rate of emergence entry is recorded as “A (less than 10%)”.

As to `CC(C)CCOc1ccc(OCCSc2ncccn2)cc1` [compound 23], the Rate of emergence entry in experiment [1] (setting [3]) was “A (less than 10%)”.

As for `CC(C)CCOc1ccc(OCCOc2nccs2)cc1` [compound 16], the Rate of emergence result in experiment [1] (setting [3]) is “A (less than 10%)”. For the same compound, the inhibition at 0.3 ppm in experiment [2] (setting [4]) was 45%. Also, the inhibition at 1 ppm in experiment [2] (1 ppm, Musca domestica larvae) came to 96%. Besides, in experiment [2] (3 ppm, Musca domestica larvae), the inhibition at 3 ppm came out at 100%.

`COC(C)(C)CCCC(C)CCCCOc1ccccn1` (stereo not drawn) [compound 1]: in experiment [1] (setting [3]), the Rate of emergence result is on record as “A (less than 10%)”.

For the compound `CC(C)CCOc1ccc(OCCOc2ncccn2)cc1` [compound 20], the Rate of emergence entry in experiment [1] (setting [3]) is “A (less than 10%)”.

Consider `CC(C)CCCc1ccc(OCCOc2nccs2)cc1` [compound 35], for which the Rate of emergence entry in experiment [1] (setting [3]) is listed as “A (less than 10%)”. Besides, the inhibition at 0.3 ppm in experiment [2] (setting [4]) is 51%. Besides, the inhibition at 1 ppm in experiment [2] (1 ppm, Musca domestica larvae) was determined as 100%. Further, the inhibition at 3 ppm in experiment [2] (3 ppm, Musca domestica larvae) was 100%.

With `CCOc1ccc(OCCOc2ccccn2)cc1` [compound 8], in experiment [1] (setting [3]), the Rate of emergence result was “A (less than 10%)”.

In the case of `Cc1cc(OCCOc2ccccn2)cc(C)c1OCCC(C)C` [compound 33], the Rate of emergence entry in experiment [1] (setting [3]) was “A (less than 10%)”.

Regarding `CC(C)CCOc1ccc(OCC(C)Oc2ncccn2)cc1` (stereo not drawn) [compound 19], the Rate of emergence result in experiment [1] (setting [3]) is recorded as “A (less than 10%)”.

In the case of `CC(C)CCOc1ccc(OC(C)COc2ccccn2)cc1` (stereo not drawn) [compound 18], in experiment [1] (setting [3]), the Rate of emergence result is given as “A (less than 10%)”.

What is called inhibition is the change of the read-out against control, counted positive when it falls.

The values above are taken from US4714706A, “Pyridyloxy derivatives and their use as insecticides” (Sumitomo Chemical Company, Limited, priority 1985, dated 1987).
